Test results as given in US20190054054A1, “Methods reducing or preventing oxidation of high density lipoprotein (HDL)” (Amarin Pharmaceuticals Ireland Limited, priority 2017, published 2019).

Columns and labels:
[1] = Membrane cholesterol domain peak intensity, x-ray diffraction of POPC/cholesterol membranes (Example 9); details: 1.5:1 C/P mole ratio; for % change Vs control / Relative Cholesterol Domain Preak Intensity: drug-to-phospholipid mole ratio 1:30; for Relative Cholesterol Domain Preak Intensity: POPC and cholesterol
Description: The fatty acid stock solutions were stored at −20° C. until use. […] Samples were shell-dried under nitrogen gas and placed under vacuum for 3 hours to remove residual solvent at room temperature. After desiccation, each sample was resuspended in saline buffer (0.5 mM HEPES, 154 mM NaCl, pH 7.3) to yield a final phospholipid concentration of 2.5 mg/mL. Lipid suspensions were then vortexed for 3 minutes at ambient temperature to form MLVs. Membrane lipid vesicles were oriented for x-ray diffraction analysis as described by others (e.g., Herbette et al., Biophys. […] Briefly, a 100 μL aliquot of each MLV preparation (containing 250 μg MLV) was transferred to a Lucite® sedimentation cell fitted with an aluminum foil substrate designed to collect MLVs into a single membrane pellet upon centrifugation. […] After centrifugal orientation, sample supernatants were aspirated and aluminum foil substrates, each supporting a single membrane pellet, were removed from the sedimentation cells. Sample pellets were dried for 5-10 minutes at ambient conditions, mounted onto curved glass supports, and placed in hermetically-sealed, brass or glass containers (for immediate analysis or temporary storage, respectively). All x-ray diffraction experiments were conducted at 20° C., 74% relative humidity. The latter was established by exposing membrane samples to saturated solutions of L-(+)-tartaric acid (K2C4H4O6.½H2O) for at least 1 hour prior to experimental analysis. Oriented membrane samples were aligned at grazing incidence with respect to a collimated, mono-chromatic CuKα x-ray beam (Kα1 and Kα2 unresolved; λ=1.54 Å) produced by a Rigaku Rotaflex RU-200, high-brilliance microfocus generator (Rigaku-MSC, The Woodlands, Tex.) as previously described (Mason et al., Biophys. J., vol. 55(4), pages 769-778 (1989)). The samples were initially subjected to x-ray diffraction analysis at least 12 hours after formation of the membrane pellets and retested for up to several days. Analytical x-rays were generated by electron bombardment of a rotating copper anode and are filtered through a thin nickel foil to provide monochromatic radiation (λ=1.54 Å). Collimation of the x-ray beam was achieved using a single Franks mirror. Diffraction data were collected on a one-dimensional, position-sensitive electron detector (Hecus X-ray Systems, Graz, Austria) at a sample-to-detector distance of 150 mm from the sample site. The d-space for any given membrane multi bilayer is a measurement of the unit cell periodicity of the membrane lipid bilayer (e.g., the distance from the center of one lipid bilayer to the next including surface hydration), and is calculated from Bragg's Law, h λ=2 d sin θ, where h is the diffraction order, λ is the wavelength of the x-ray radiation (1.54 Å), d is the membrane lipid bilayer unit cell periodicity, and θ is the Bragg angle equal to one-half the angle between the incident beam and scattered beam. […] Routines written in Origin 8.6 (OriginLab Corporation, Northampton, Mass.) were used to determine total peak area (associated with all diffraction peaks in a given pattern) against which the second-order cholesterol domain peak was normalized. The raw data collected in this study was normalized using internal. Data were presented as mean+S.E.M. for (N) separate samples or treatment groups. Differences between groups were analyzed using the two-tailed, Student's t-test (for comparisons between only two groups) or ANOVA followed by Dunnett or Student-Newman-Keuls multiple comparisons post-hoc analysis (for comparisons between three or more groups). Alpha error was set to 0.05 in this study.

[2] = tested on: human LDL; assay: Copper-induced oxidation of unfractionated LDL, TBARS (Example 7); format: biochemical; details: for effect on unfractionated LDL oxidation as compared to vehicle-treated controls: all agents at 10 μM, 1 hour (FIG. 25)
Description: An experiment to study the antioxidant effect of EPA in LDL and small dense […] performed. […] Fenofibrate, gemfibrozil, and niacin were purchased from Sigma-Aldrich. […] Vitamin E was also incubated with sample aliquots as a positive control.

[3] = tested on: sdLDL isolated from human subjects under conditions of hyperglycemia; assay: Glucose-induced sdLDL oxidation, MDA/TBARS (Example 10); format: biochemical; details: 200 mg/dL glucose; for effect on glucose-induced sdLDL oxidation: 10.0 μM
Description: Vitamin E (α-tocopherol) purchased from Sigma-Aldrich was prepared in ethanol at 1.0 mM (E=[…] at 294 nm) prior to experimental use. Test compounds were further diluted in ethanol or aqueous buffer as needed. Phosphate Buffered Saline (PBS) purchased from Sigma-Aldrich was prepared in double distilled water at 10 mM (138 mM NaCl, 2.7 mM KCl, pH 7.4). […] Lipid oxidation was measured by the colorimetric detection of malondialdehyde (MDA), a marker of oxidative stress. Data were presented as mean±SD for (n) separate samples or experiments. Differences between groups were analyzed using the unpaired, two-tailed Student's t-test (for comparisons between only two groups) or ANOVA followed by Student-Newman-Keuls multiple comparisons post hoc analysis (for comparisons between three or more groups).

[4] = EPA to phospholipid mole ratio 1:60
[5] = EPA to phospholipid mole ratio 1:90

Compound	reduction in cholesterol domain peaks as compared to vehicle treatment ([1]; 1:30) [%]	% Change (vs. Control) [1, 4] [%]	Relative Cholesterol Domain Peak Intensity [1, 4]	% Change (vs. Control) [1, 5] [%]	Relative Cholesterol Domain Peak Intensity [1, 5]	% change Vs control [1] [%]	Relative Cholesterol Domain Preak Intensity [1]	effect on unfractionated LDL oxidation, dose dependence ([2]; 1 hour)	inhibition of TBARS formation compared to vehicle-treated control ([2]; highest treatment concentration, 1 hour) [%]	IC50 ([3]; read-out: IC50, inhibition of glucose-induced sdLDL oxidation) [nM]	inhibition of sdLDL oxidation as compared to vehicle controls ([3]; highest concentration tested) [%]	sdLDL oxidation (formation of MDA) ([3]; highest concentration tested, unit of the source corrected) [µM]	effect on cholesterol domains (in words) ([1]; 1:30)	% change Vs control ([1]; listed as Gemfib) [%]	Relative Cholesterol Domain Preak Intensity ([1]; listed as Gemfib)	effect on unfractionated LDL oxidation as compared to vehicle-treated controls [2]	effect on glucose-induced sdLDL oxidation [3]	% change Vs control ([1]; listed as Niacin) [%]	Relative Cholesterol Domain Preak Intensity ([1]; listed as Niacin)	increase in sdLDL oxidation as compared to glucose-treated controls [3] [%]
CC/C=C\C/C=C\C/C=C\C/C=C\C/C=C\CCCC(=O)O [EPA, cis-5,8,11,14,17-eicosapentaenoic acid]	65	−30.2 ± 27.9	29.5 ± 10.9	−15.0 ± 12.6	36.0 ± 3.1	−65.5 ± 17.1	14.6±5	significantly and reproducibly inhibited unfractionated LDL oxidation in a dose-dependent manner	> 90	< 1000	94	0.2 ± 0.1	–	–	–	–	–	–	–	–
Cc1ccc(C)c(OCCCC(C)(C)C(=O)O)c1 [gemfibrozil]	–	–	–	–	–	11	46.9±12.6	–	–	–	–	–	no significant changes in cholesterol domain size	10.9 ± 43.3	46.9 ± 12.6	no significant effect on unfractionated LDL oxidation	did not inhibit glucose-induced sdLDL oxidation	–	–	–
O=C(O)c1cccnc1 [niacin, nicotinic acid]	–	–	–	–	–	−35	27.5±12.2	–	–	–	–	–	no significant changes in cholesterol domain size	–	–	no significant effect on unfractionated LDL oxidation	did not inhibit glucose-induced sdLDL oxidation	−35.0 ± 30.8	27.5 ± 12.2	–
Cc1c(C)c2c(c(C)c1O)CC[C@@](C)(CCC[C@H](C)CCC[C@H](C)CCCC(C)C)O2 [vitamin E, α-tocopherol]	–	–	–	–	–	–	–	–	–	–	–	–	–	–	–	no significant effect on unfractionated LDL oxidation	failed to inhibit sdLDL oxidation	–	–	63
